Assay: xn = mol fraction of the nth substance listed
Details: 100 kPa, Liquid; for mass density: Vibrating tube method; for viscosity: Concentric cylinders viscometry

O=Cc1ccccc1 [benzaldehyde] + CCC(C)O
Details	mass density, 308.15 K [kg/m3]	mass density, 313.15 K [kg/m3]	mass density, 318.15 K [kg/m3]	mass density, 323.15 K [kg/m3]	viscosity, 313.15 K [mPa·s]	viscosity, 318.15 K [mPa·s]	viscosity, 323.15 K [mPa·s]
x1 = 0.0813	812.3	807.8	803	798.9	1.636	1.388	1.215
x1 = 0.1623	829.9	825.5	820.8	816.4	1.49	1.265	1.128
x1 = 0.2401	848.1	843.7	839	834.6	1.366	1.172	1.056
x1 = 0.3517	873.9	869.3	864.6	860	1.23	1.068	0.977
x1 = 0.4404	895.3	890.8	886.1	881.5	1.146	1.01	0.932
x1 = 0.5612	924.7	920.3	915.7	911	1.079	0.966	0.895
x1 = 0.6519	947.6	944.4	940	933.9	1.05	0.95	0.882
x1 = 0.7423	971.1	966.7	962.1	956	1.038	0.948	0.887
x1 = 0.8511	997	993.4	987.7	982.1	1.057	0.979	0.913
x1 = 0.94	1019	1014.1	1009.3	1003.9	1.1	1.026	0.962
x1 = 1	1032.4	1027.9	1023.4	1019.1	1.15	1.09	1.03

— the NIST ThermoML archive (doi:10.1021/acs.jced.7b00335)
